Reference: ChEMBL document CHEMBL3856212, “Synthesis, anti-proliferative and genotoxicity studies of 6-chloro-5-(2-substituted-ethyl)-1,3-dihydro-2H-indol-2-ones and 6-chloro-5-(2-chloroethyl)-3-(alkyl/ary-2-ylidene)indolin-2-ones” (Eur J Med Chem, 2016)

Tests used:
[1] = Cytotoxicity against human CCRF-CEM cells assessed as growth inhibition after 48 hrs by SRB assay; format: functional
[2] = Cytotoxicity against human MOLT4 cells assessed as growth inhibition after 48 hrs by SRB assay; format: functional; conditions: MOLT-4, 48 h
[3] = Cytotoxicity against human RPMI8226 cells assessed as growth inhibition after 48 hrs by SRB assay; format: functional; conditions: RPMI-8226, 48 h
[4] = Cytotoxicity against human EKVX cells assessed as growth inhibition after 48 hrs by SRB assay; format: functional
[5] = Cytotoxicity against human NCI-H23 cells assessed as growth inhibition after 48 hrs by SRB assay; format: functional; conditions: NCI-H23, 48 h
[6] = Cytotoxicity against human HCC2998 cells assessed as growth inhibition after 48 hrs by SRB assay; format: functional; conditions: HCC 2998, 48 h
[7] = Cytotoxicity against human HCT15 cells assessed as growth inhibition after 48 hrs by SRB assay; format: functional; conditions: HCT-15, 48 h
[8] = Cytotoxicity against human HT-29 cells assessed as growth inhibition after 48 hrs by SRB assay; format: functional; conditions: HT-29, 48 h
[9] = Cytotoxicity against human SF268 cells assessed as growth inhibition after 48 hrs by SRB assay; format: functional; conditions: SF-268, 48 h
[10] = Cytotoxicity against human SNB75 cells assessed as growth inhibition after 48 hrs by SRB assay; format: functional; conditions: SNB-75, 48 h
[11] = Cytotoxicity against human U251 cells assessed as growth inhibition after 48 hrs by SRB assay; format: functional; conditions: U-251, 48 h
[12] = Cytotoxicity against human LOXIMVI cells assessed as growth inhibition after 48 hrs by SRB assay; format: functional; conditions: LOX IMVI
[13] = Cytotoxicity against human A498 cells assessed as growth inhibition after 48 hrs by SRB assay; format: functional; conditions: A498, 48 h
[14] = Cytotoxicity against human ACHN cells assessed as growth inhibition after 48 hrs by SRB assay; format: functional
[15] = Cytotoxicity against human RXF393 cells assessed as growth inhibition after 48 hrs by SRB assay; format: functional; conditions: RXF 393, 48 h
[16] = Cytotoxicity against human DU145 cells assessed as growth inhibition after 48 hrs by SRB assay; format: functional; conditions: DU-145, 48 h
[17] = Cytotoxicity against human MCF7 cells assessed as growth inhibition after 48 hrs by SRB assay; format: functional; conditions: MCF7, 48 h
[18] = Cytotoxicity against human MDA-MB-231 cells assessed as growth inhibition after 48 hrs by SRB assay; format: functional; conditions: MDA-MB-231, 48 h
[19] = Cytotoxicity against human BT549 cells assessed as growth inhibition after 48 hrs by SRB assay; format: functional; conditions: BT-549, 48 h
[20] = Cytotoxicity against human MDA-MB-468 cells assessed as growth inhibition after 48 hrs by SRB assay; format: functional; conditions: MDA-MB-468, 48 h
[21] = Cytotoxicity against human HOP62 cells assessed as assessed as growth inhibition at 10^-5 M after 48 hrs by SRB assay relative to control; format: functional; conditions: HOP-62, 48 h, read-out: GI
[22] = Cytotoxicity against human NCI-H23 cells assessed as assessed as growth inhibition at 10^-5 M after 48 hrs by SRB assay relative to control; format: functional; conditions: NCI-H23, 48 h, read-out: GI
[23] = Cytotoxicity against human HCC2998 cells assessed as assessed as growth inhibition at 10^-5 M after 48 hrs by SRB assay relative to control; format: functional; conditions: HCC 2998, 48 h, read-out: GI
[24] = Cytotoxicity against human HT-29 cells assessed as assessed as growth inhibition at 10^-5 M after 48 hrs by SRB assay relative to control; format: functional; conditions: HT-29, 48 h, read-out: GI
[25] = Cytotoxicity against human SNB19 cells assessed as assessed as growth inhibition at 10^-5 M after 48 hrs by SRB assay relative to control; format: functional; conditions: SNB-19, 48 h, read-out: GI
[26] = Cytotoxicity against human UACC257 cells assessed as assessed as growth inhibition at 10^-5 M after 48 hrs by SRB assay relative to control; format: functional; conditions: UACC-257, 48 h, read-out: GI
[27] = Cytotoxicity against human OVCAR3 cells assessed as assessed as growth inhibition at 10^-5 M after 48 hrs by SRB assay relative to control; format: functional; conditions: OVCAR-3, 48 h, read-out: GI
[28] = Cytotoxicity against human NCI-ADR-RES cells assessed as assessed as growth inhibition at 10^-5 M after 48 hrs by SRB assay relative to control; format: functional; conditions: read-out: GI
[29] = Cytotoxicity against human 786-0 cells assessed as assessed as growth inhibition at 10^-5 M after 48 hrs by SRB assay relative to control; format: functional; conditions: 786-0, 48 h, read-out: GI
[30] = Cytotoxicity against human SN12C cells assessed as assessed as growth inhibition at 10^-5 M after 48 hrs by SRB assay relative to control; format: functional; conditions: read-out: GI
[31] = Cytotoxicity against human Hs 578T cells assessed as assessed as growth inhibition at 10^-5 M after 48 hrs by SRB assay relative to control; format: functional; conditions: read-out: GI
Mus musculus = organism: Mus musculus; assay: Genotoxicity in mouse EAC cells at 500 uM after 24 hrs by micronucleus assay (reference value: 3.5 +/- 0.30%); format: toxicity, cell-based; conditions: ehrlich
[32] = Induction of apoptosis in mouse EAC cells at 125 uM after 24 hrs by acridine orange dye-based fluorescence microscopy (reference value: 0.66 +/- 0.33%); format: cell-based; conditions: ehrlich
[33] = Induction of apoptosis in mouse EAC cells at 250 uM after 24 hrs by acridine orange dye-based fluorescence microscopy (reference value: 0.66 +/- 0.33%); format: cell-based; conditions: ehrlich
[34] = read-out: LD50 (the source's name)

## O=C1Cc2cc(CCn3cncn3)c(Cl)cc2N1
[1]
  GI50: 3500 nM
  TGI: > 1000 nM
[1]; [34]
  CC50: > 1000 nM
[2]
  GI50: 1000 nM
  TGI: > 1000 nM
[2]; [34]
  CC50: > 1000 nM
[3]
  GI50: 1000 nM
  TGI: > 1000 nM
[3]; [34]
  CC50: > 1000 nM
[4]
  GI50: 8250 nM
  TGI: > 1000 nM
[4]; [34]
  CC50: > 1000 nM
[5]
  GI50: 1000 nM
  TGI: > 1000 nM
[5]; [34]
  CC50: > 1000 nM
[6]
  GI50: 1000 nM
  TGI: > 1000 nM
[6]; [34]
  CC50: > 1000 nM
[7]
  GI50: 9590 nM
  TGI: > 1000 nM
[7]; [34]
  CC50: > 1000 nM
[8]
  GI50: 1000 nM
  TGI: > 1000 nM
[8]; [34]
  CC50: > 1000 nM
[9]
  GI50: 5960 nM
  TGI: > 1000 nM
[9]; [34]
  CC50: > 1000 nM
[10]
  GI50: 1320 nM
  TGI: > 1000 nM
[10]; [34]
  CC50: > 1000 nM
[11]
  GI50: 1450 nM
  TGI: > 1000 nM
[11]; [34]
  CC50: > 1000 nM
[12]
  GI50: 1000 nM
  TGI: > 1000 nM
[12]; [34]
  CC50: > 1000 nM
[13]
  GI50: 3250 nM
  TGI: > 1000 nM
[13]; [34]
  CC50: > 1000 nM
[14]
  GI50: 1000 nM
  TGI: > 1000 nM
[14]; [34]
  CC50: > 1000 nM
[15]
  GI50: 7480 nM
  TGI: > 1000 nM
[15]; [34]
  CC50: > 1000 nM
[16]
  GI50: 1000 nM
  TGI: > 1000 nM
[16]; [34]
  CC50: > 1000 nM
[17]
  GI50: 4020 nM
  TGI: > 1000 nM
[17]; [34]
  CC50: > 1000 nM
[18]
  GI50: 4660 nM
  TGI: > 1000 nM
[18]; [34]
  CC50: > 1000 nM
[19]
  GI50: 8720 nM
  TGI: > 1000 nM
[19]; [34]
  CC50: > 1000 nM
[20]
  GI50: 2180 nM
  TGI: 9540 nM
[20]; [34]
  CC50: > 1000 nM
[21]
  inhibition of growth at 10 µM: 30.4%
[22]
  inhibition of growth at 10 µM: 75.9%
[23]
  inhibition of growth at 10 µM: 24.9%
[24]
  inhibition of growth at 10 µM: 2.85%
[25]
  inhibition of growth at 10 µM: 25.6%
[26]
  inhibition of growth at 10 µM: 48.3%
[27]
  inhibition of growth at 10 µM: 28.3%
[28]
  inhibition of growth at 10 µM: 47.1%
[29]
  inhibition of growth at 10 µM: 5.34%
[30]
  inhibition of growth at 10 µM: 44.2%
[31]
  inhibition of growth at 10 µM: 71.4%
Mus musculus
  Activity: 5.23%
[32]
  Activity: 0.6%
[33]
  Activity: 0.63%
